Experimental data as given in paper PMC5222924, “Synergistic interplay of Gβγ and phosphatidylinositol 4,5-bisphosphate dictates Kv7.4 channel activity” (Pflugers Archiv, 2016).

Legend:
Kv7.4 channel = Kv7.4 channel (UniProt P56696)
Kv7.4 [1] = target: T1, Kv7.4 (Homo sapiens, UniProt P56696); test: inside-out patch clamp, single-channel NPo; type: cell-based; details: room temperature; activator applied to excised patch, no added Gβγ; unreliable: saturation not reached, sigmoidal fit of pooled patches
T1 construct: gene KCNQ4; full-length channel, homomer, stably expressed in HEK293 cells (line a gift from the University of Copenhagen)
T1 sequence (P56696 1-695): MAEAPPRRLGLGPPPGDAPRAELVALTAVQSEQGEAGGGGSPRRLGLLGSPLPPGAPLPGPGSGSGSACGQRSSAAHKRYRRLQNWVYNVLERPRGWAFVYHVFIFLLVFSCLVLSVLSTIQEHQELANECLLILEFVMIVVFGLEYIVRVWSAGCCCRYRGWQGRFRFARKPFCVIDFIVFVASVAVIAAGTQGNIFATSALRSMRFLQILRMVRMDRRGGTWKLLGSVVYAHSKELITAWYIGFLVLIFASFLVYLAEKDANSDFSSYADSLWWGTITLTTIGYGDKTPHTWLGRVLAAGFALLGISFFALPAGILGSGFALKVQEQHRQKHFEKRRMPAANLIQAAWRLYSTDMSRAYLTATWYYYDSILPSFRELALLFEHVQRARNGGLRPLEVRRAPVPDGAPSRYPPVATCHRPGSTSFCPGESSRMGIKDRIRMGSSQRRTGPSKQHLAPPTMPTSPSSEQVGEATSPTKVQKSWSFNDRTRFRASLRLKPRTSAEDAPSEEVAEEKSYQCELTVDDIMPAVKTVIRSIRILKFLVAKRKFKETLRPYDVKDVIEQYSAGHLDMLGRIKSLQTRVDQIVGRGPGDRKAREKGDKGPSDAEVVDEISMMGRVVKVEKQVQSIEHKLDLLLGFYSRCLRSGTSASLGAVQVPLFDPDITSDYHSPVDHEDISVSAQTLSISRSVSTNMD

Kv7.4 [2] = target: T1, Kv7.4; test: whole-cell patch clamp; type: cell-based; details: room temperature; opener, concentration not given; common approximate value for three openers

Q: “G-protein βγ subunits from bovine brain (from UniProt P62871 1-340; P63212 1-71) (complex)” was tested. Which half maximal stimulation of Kv7.4 channel activity, inside-out excised patches, bath application of Gβγ (0.4–50 ng/ml) (Kv7.4 channel) did it give?
A: 8.1 ng/mL

Q: What about the increase of whole-cell Kv7.4 current amplitude within 5 min of rupture, intracellular perfusion of active Gβγ (250 ng/ml), control cells (Kv7.4 channel) of the same compound?
A: 70%

Q: For PIP2, which half-maximal stimulation (Kv7.4 [1]) is on record?
A: ~ 117 μM

Q: CCOC(=O)Nc1ccc(NCc2ccc(F)cc2)cc1N [Retigabine] was tested. Which “% increase of current at +20 mV” value (Kv7.4 [2]) did it give?
A: ~ 40%

Q: With NS15370 as the compound, how does the “% increase of current at +20 mV” value (Kv7.4 [2]) read?
A: ~ 40%
